This is an account of results in US9822068B2, “Inhibitors of fatty acid amide hydrolase (FAAH) enzyme with improved oral bioavailability and their use as medicaments” (THE REGENTS OF THE UNIVERSITY OF CALIFORNIA, priority 2014, dated 2017).

≈ marks a conversion by molar mass, not a printed value. Like-named read-outs stand apart in the source and are kept apart here.

One data set has as its target Rat FAAH (Rattus norvegicus (Rat), UniProt P97612). Put plainly: In vitro rat FAAH radiometric assay. In kind it is biochemical. The note with it: rat brain homogenate, 10 min pre-incubation at 37° C.; read-out: r-FAAH IC50. How it is done: In Vitro Rat FAAH Radiometric Assay
Rat FAAH was prepared from male Sprague Dawley rat brains, homogenized in a potter in 20 mM of Tris HCl pH 7.4, 0.32 M sucrose.
The radiometric assay used to measure FAAH activity was performed in Eppendorf tubes: 50 μg of total rat brain homogenate were pre-incubated in 445.5 μL of assay buffer (50 mM Tris-HCl pH 7.4, 0.05% Fatty acid-free-bovine serum albumin (BSA)) with 4.5 μL of inhibitor (at appropriate concentration in DMSO) or DMSO alone (to measure FAAH total activity) for 10 min at 37° C. The blank (no activity control) was prepared using 445.5 μL of assay buffer and 4.5 μL of DMSO without the 50 μg of total rat brain homogenate.
After 10 min of pre-incubation with test compounds, the reaction was started by adding of 50 μL of substrate and incubating for 30 min at 37° C. The substrate was prepared in assay buffer in order to achieve the final concentration of 1 μM arachidonoyl ethanolamide (Cayman Chemical N. 90050) and 0.6 nM anandamide [ethanolamine-1-^3H] (American Radiolabeled Chemicals Inc, ART. 0626, Conc. 1 mCi/mL, S.A. 60 Ci/mmol). The reaction was stopped by adding cold 1:1 CHCl3/MeOH. After 10 min of centrifugation (845×g at 4° C.) 600 μL of aqueous phase were transferred into scintillation vials previously filled with 3 mL of scintillation fluid (Ultima Gold™, Perkin Elmer Inc., Cat. 6013329). Radioactivity was measured by liquid scintillation counting (MicroBeta2 LumiJET Perkin Elmer Inc.).
(§1) Concentrations causing half-maximal inhibition of FAAH, IC50 values, were determined by non-linear regression analysis of the Log [concentration]/response curves generated with mean replicate values using a four parameter Hill equation curve fitting with GraphPad Prism 5 (GraphPad Software Inc., CA—USA).

In the next data set the target is human FAAH-1 (Homo sapiens (Human), UniProt O00519). The experiment in a line: In vitro human FAAH fluorescent assay. Format: biochemical. The conditions noted are these: human FAAH-1 membrane preparation from HEK-293, 50 min pre-incubation at 37° C.; read-out: h-FAAH IC50. How it is done: In Vitro Human FAAH Fluorescent Assay
human FAAH-1, sequence (O00519 whole entry): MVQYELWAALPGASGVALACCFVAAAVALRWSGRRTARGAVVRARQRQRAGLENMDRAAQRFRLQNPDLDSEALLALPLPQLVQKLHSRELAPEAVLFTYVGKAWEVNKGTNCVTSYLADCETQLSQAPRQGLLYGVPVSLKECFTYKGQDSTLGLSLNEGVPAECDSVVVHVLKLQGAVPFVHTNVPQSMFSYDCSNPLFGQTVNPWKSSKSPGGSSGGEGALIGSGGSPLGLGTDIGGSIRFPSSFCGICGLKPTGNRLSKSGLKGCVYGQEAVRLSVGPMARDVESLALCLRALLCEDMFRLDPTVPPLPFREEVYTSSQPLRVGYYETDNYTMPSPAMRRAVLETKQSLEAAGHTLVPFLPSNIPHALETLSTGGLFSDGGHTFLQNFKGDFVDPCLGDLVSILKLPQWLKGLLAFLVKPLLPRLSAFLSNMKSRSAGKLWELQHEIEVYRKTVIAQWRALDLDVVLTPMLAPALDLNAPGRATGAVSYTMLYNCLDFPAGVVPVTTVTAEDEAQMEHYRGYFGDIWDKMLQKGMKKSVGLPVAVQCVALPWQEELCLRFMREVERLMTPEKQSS
Human recombinant FAAH was obtained from a HEK-293 cell line stably overexpressing human FAAH-1 enzyme. Cells were grown in Dulbecco's Modified Eagle Medium (DMEM) medium containing 10% FBS, 1% pen/strep, 1% glutamine and 500 μg/mL G418. To obtain membrane preparation cells were scraped off with cold PBS and collected by centrifugation (500×g, 10 min, 4° C.); the cell pellet was re-suspended in 20 mM Tris-HCl pH 7.4, 0.32M sucrose, disrupted by sonication (10 pulses, 5 times) and centrifuged (800×g, 15 min, 4° C.); the collected supernatant was centrifuged at 105,000×g for 1 h at 4° C. and the pellet was re-suspended in PBS.
The fluorescent assay to measure FAAH activity was performed in 96 wells black plates: 2.5 μg of human FAAH-1 membrane preparation were pre-incubated for 50 min at 37° C., in 180 µL of assay buffer (50 mM TrisHCl pH 7.4, 0.05% Fatty acid-free-BSA) with 10 μL of inhibitor (at appropriate concentration in DMSO) or 10 μL DMSO to measure FAAH total activity. The background (no activity) samples were prepared using 180 μL of assay buffer without human FAAH-1 and 10 μL of DMSO. The reaction was then started by the addition of 10 μL of a 40 μM substrate solution (N. 10005098, Cayman Chemical) dissolved in ethanol, and used at a final concentration of 2 μM. The reaction was carried out for 30 min at 37° C. and fluorescence was measured with a Tecan Infinite M200 nanoquant plate reader (excitation wavelength 350 nm/emission wavelength 460 nm).
as §1

A short description of data set [1]: Aqueous kinetic solubility assay. In kind it is physicochemical. The conditions noted are these: phosphate buffered saline, aqueous buffer, kinetic from dmso stock, PBS pH 7.4, target 250 μM, 2.5% DMSO, 25° C. As to the method:
Aqueous Kinetic Solubility Assay
The aqueous kinetic solubility was determined from a 10 mM DMSO stock solution of test compound in Phosphate Buffered Saline (PBS) at pH 7.4.
The study was performed by incubation of an aliquot of 10 mM DMSO stock solution in PBS (pH 7.4) at a target concentration of 250 μM resulting in a final concentration of 2.5% DMSO. The incubation was carried out under shaking at 25° C. for 24 h followed by centrifugation. The supernatant was analyzed by UPLC/MS for the quantification of dissolved compound by UV at a specific wavelength (215 nm).
The aqueous kinetic solubility (in μM) was calculated by dividing the peak area of the supernatant by the peak area of the test compound reference and further multiplied by the concentration of the test compound reference and dilution factor.
The UPLC/MS analyses were performed on a Waters ACQUITY UPLC/MS system consisting of a SQD (Single Quadrupole Detector) Mass Spectrometer equipped with an Electrospray Ionization interface and a Photodiode Array Detector. The PDA range was 210-400 nm. The analyses were run on an ACQUITY UPLC BEH C18 column (50×2.1 mmID, particle size 1.7 m) with a VanGuard BEH C18 pre-column (5×2.1 mmID, particle size 1.7 μm). The mobile phase was 10 mM NH4OAc in H2O at pH 5 adjusted with AcOH (A) and 10 mM NH4OAc in MeCN—H2O (95:5) at pH 5 (B). Electrospray ionization in positive and negative mode was applied in the mass scan range 100-500 Da.

Data set [2] in a line: Pharmacokinetic experiment in cannulated Sprague-Dawley rats (PO and IV). Format: in vivo. The conditions noted are these: plasma, rat; for bioavailability: PO 10 mg/kg vs IV 3 mg/kg, read-out: Oral bioavailability (F %). As to the method:
Pharmacokinetic Experiment and Analysis
Compounds were administered orally (PO) and intravenously (IV) to cannulated Sprague-Dawley rats at 10 and 3 mg/kg, respectively. Vehicle was: PEG400/Tween 80/Saline solution at 10/10/80 (% in volume), respectively. Three animals per dose were treated. Blood samples at 0, 15, 30, 60, 120, 240, 480 and 1440 min after administration were collected for PO arm. Blood samples at 0, 5, 15, 30, 60, 120 and 240 min after administration were collected for IV arm. Plasma was separated from blood by centrifugation for 15 min at 3500 rpm a 4° C., collected in a Eppendorf tube and frozen (−80° C.). Control animals treated with vehicle only were also included in the experimental protocol.
Preparation of Samples, Standard Curve and QC Samples for UPLC-MS Analysis
Samples were thawed in an ice bath and after a short centrifugation transferred (50 μL) into a 96-deepwell plate and added with 150 μL of acetonitrile spiked with 200 nM Warfarin (the Internal Standard, I.S.). After agitation (3 min) the plate was centrifuged at 3000 g for 10 min at 4° C. 80 μL of supernatant was then transferred in a 96-well plate and added with 80 μL of water. Standard compound was spiked in neat solvent (PBS pH 7.4 added with 10% acetonitrile) to prepare a calibration curve over the 1 nM-10 μM range. Three quality controls (QCs) samples were also prepared spiking the compound in blank rat plasma to final 20, 200 and 2000 nM concentrations. Calibrators and QCs were crashed with acetonitrile spiked with the I.S. as described for the plasma samples. Dosing solutions, previously diluted 2000 fold in the neat solvent were also included in the samples and tested.
Compounds plasma levels were monitored on a Xevo TQ UPLC-MS/MS system (Waters, Milford USA), using the calibration curve and the internal standard (Warfarin). Chromatography was carried out on a Acquity BEH C18 column (2.1×50 mmID, 1.7 m particle size, Waters, Milford USA). Flow rate was 0.5 mL/min. The mobile phase was (A) H2O/0.1% formic acid; (B) MeCN/0.1% formic acid. A linear gradient was applied from 5 to 100% B in 2 min. 3 μL of each sample were loaded on column. MS parameters and multiple reaction monitoring (MRM) transitions were carefully tuned for each compound. Plasma levels data were analyzed using PKSolutions excel application (Summit Research Service, USA) to derive the most important pharmacokinetic parameters.
The oral bioavailability (F %) data, and the Area Under the Curve (AUC) data (ng×min/mL) corresponding to the IV (3 mg/kg) and PO (10 mg/kg) dose of selected compounds described in the Examples are reported in Table 3. Their F % data are in the range from 35 to 87.

Where [3] appears, read: IV, 3 mg/kg, read-out: AUC IV (3 mg/kg) (converted).
Where [4] appears, read: PO, 10 mg/kg, read-out: AUC PO (10 mg/kg) (converted).

Rat FAAH, sequence (P97612 whole entry): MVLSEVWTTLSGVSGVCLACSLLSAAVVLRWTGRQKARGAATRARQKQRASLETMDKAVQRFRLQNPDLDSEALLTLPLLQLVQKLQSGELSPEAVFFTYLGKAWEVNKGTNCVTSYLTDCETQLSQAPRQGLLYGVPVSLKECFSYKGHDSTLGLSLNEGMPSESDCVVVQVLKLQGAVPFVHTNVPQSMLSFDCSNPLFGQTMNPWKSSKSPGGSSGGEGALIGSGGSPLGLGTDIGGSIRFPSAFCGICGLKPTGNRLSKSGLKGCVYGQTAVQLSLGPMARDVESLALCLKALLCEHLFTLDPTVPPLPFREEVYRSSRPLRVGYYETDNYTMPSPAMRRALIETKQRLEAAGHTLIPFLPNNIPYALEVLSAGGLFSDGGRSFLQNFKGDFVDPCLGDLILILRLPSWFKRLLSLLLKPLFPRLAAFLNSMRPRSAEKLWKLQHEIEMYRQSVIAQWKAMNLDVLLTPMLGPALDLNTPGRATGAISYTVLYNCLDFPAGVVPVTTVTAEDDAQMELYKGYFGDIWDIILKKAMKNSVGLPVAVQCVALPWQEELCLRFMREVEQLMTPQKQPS

What is called IC50 is the midpoint of a concentration-inhibition curve. Usually kinetic solubility stands for the concentration staying in solution when a stock, usually in DMSO, is diluted into the medium. For orientation: bioavailability means the share of a dose that reaches the circulation, judged against a reference dose that is usually intravenous. For `NC(=O)c1cccc(-c2cc(OC(=O)NC3CCC3)ccc2F)c1` [Example 3, [3-(3-carbamoylphenyl)-4-fluoro-phenyl] N-cyclobutylcarbamate], the figures for the IC50 on Rat FAAH and at human FAAH-1 were 0.9 nM and 1.8 nM, respectively. The molecule further registered a solubility (kinetic) at 24 h in data set [1] of 33 µM (≈ 10.8 µg/mL). In addition, the bioavailability in data set [2] was found to be 79%. Besides, the AUC in data set [2] (setting [3]) was 498 ng·h/mL; in data set [2] (setting [4]), 1310 ng·h/mL.

With `NC(=O)c1cccc(-c2cc(OC(=O)NC3CCCCC3)ccc2OC(F)F)c1` [Example 8, [3-(3-carbamoylphenyl)-4-(difluoromethoxy)phenyl] N-cyclohexylcarbamate], the IC50 was 1.4 nM on Rat FAAH and 8.2 nM on human FAAH-1. The same molecule returned a solubility (kinetic) at 24 h in data set [1] of 44 µM (≈ 17.8 µg/mL). Moreover, in data set [2], the bioavailability is 35%. The AUC is 2110 ng·h/mL in data set [2] (setting [3]) and 2430 ng·h/mL in data set [2] (setting [4]).

As to `CNC(=O)c1cccc(-c2cc(OC(=O)NC3CCCCC3)ccc2OC(F)F)c1` [Example 9, [4-(difluoromethoxy)-3-[3-(methylcarbamoyl)phenyl]phenyl] N-cyclohexyl carbamate], the IC50 on Rat FAAH is 3.5 nM; at human FAAH-1, 12 nM. The molecule also gave a kinetic solubility at 24 h in data set [1] of 8 µM (≈ 3.35 µg/mL). Also, the bioavailability in data set [2] worked out at 53%. The figures for the AUC in data set [2] (setting [3]) and in data set [2] (setting [4]) were 1390 ng·h/mL and 2480 ng·h/mL, respectively.
